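Cells were grown in 96-well plates and exposed to each compound for 48 hours at five concentrations; endpoints were interpolated linearly between bracketing concentrations, or set to the highest concentration if not reached. TGI marks complete inhibition of growth.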
Columns and labels:
Experiment in all cases: DTP human tumour cell line panel, 48 h
[1] = test system: MDA-MB-231 breast
[2] = test system: BT-549 breast
[3] = test system: NCI-H226 lung
[4] = test system: HCT-15 colon
[5] = test system: SW-620 colon
[6] = test system: SK-MEL-5 melanoma
[7] = test system: UACC-257 melanoma
[8] = test system: OVCAR-4 ovarian
[9] = test system: OVCAR-8 ovarian
[10] = test system: MOLT-4 leukemia
[11] = test system: RPMI-8226 leukemia
[12] = test system: NCI-H23 lung
[13] = test system: HCT-116 colon
[14] = test system: MCF7 breast
[15] = test system: UACC-62 melanoma
[16] = test system: K-562 leukemia
[17] = test system: RXF 393 renal
[18] = test system: IGROV1 ovarian
[19] = test system: U251 CNS
[20] = test system: SK-MEL-2 melanoma

COC(=O)CC(CNC(=O)OCc1ccccc1)OCc1ccc(OC)cc1 (stereo not given)
TGI [1]: > 100 µM | TGI [2]: > 100 µM | TGI [3]: > 100 µM | TGI [4]: > 100 µM | TGI [5]: > 100 µM | TGI [6]: > 100 µM | TGI [7]: > 100 µM | TGI [8]: > 100 µM | TGI [9]: > 100 µM | TGI [10]: > 100 µM | TGI [11]: > 100 µM | TGI [12]: > 100 µM | TGI [13]: > 100 µM | TGI [14]: > 100 µM | TGI [15]: > 100 µM | TGI [16]: > 100 µM | TGI [17]: > 100 µM | TGI [18]: > 100 µM | TGI [19]: > 100 µM | TGI [20]: > 100 µM

CCCCCCCCCCCCCCCC(=O)Nc1ccn(C2CCC(COP(=O)(O)OCC3OC(n4cc(F)c(=O)[nH]c4=O)CC3OC(C)=O)O2)c(=O)n1 (stereo not given)
TGI [1]: > 61.6 µM | TGI [2]: 58.4 µM | TGI [3]: > 100 µM | TGI [4]: > 100 µM | TGI [5]: > 52.5 µM | TGI [6]: 26.9 µM | TGI [7]: 53.6 µM | TGI [8]: > 86.5 µM | TGI [9]: > 72.2 µM | TGI [10]: 30.4 µM | TGI [11]: 52.9 µM | TGI [12]: 47.9 µM | TGI [13]: 34.1 µM | TGI [14]: 44.1 µM | TGI [15]: 61.6 µM | TGI [16]: > 38.2 µM | TGI [17]: > 100 µM | TGI [18]: > 100 µM | TGI [19]: 36.3 µM | TGI [20]: 47.6 µM

Cc1cccc2c1c(=O)c1c(O)cc3c(c1n2C)C=CC(C)(C)O3
TGI [1]: > 100 µM | TGI [2]: > 100 µM | TGI [3]: > 100 µM | TGI [4]: > 100 µM | TGI [5]: > 100 µM | TGI [6]: > 100 µM | TGI [7]: > 100 µM | TGI [8]: > 100 µM | TGI [9]: > 100 µM | TGI [10]: > 100 µM | TGI [11]: > 100 µM | TGI [12]: > 100 µM | TGI [13]: > 100 µM | TGI [14]: > 100 µM | TGI [15]: > 100 µM | TGI [16]: > 100 µM | TGI [17]: > 100 µM | TGI [18]: > 100 µM | TGI [19]: > 100 µM | TGI [20]: > 100 µM

O=C(O)C1=CN(c2ccncc2)C(c2ccco2)=CC1c1ccccc1[N+](=O)[O-] (stereo not given)
TGI [1]: 30.6 µM | TGI [2]: 26.9 µM | TGI [3]: 38.3 µM | TGI [4]: 4.75 µM | TGI [5]: > 31.7 µM | TGI [6]: > 49.6 µM | TGI [7]: 5.35 µM | TGI [8]: 28.2 µM | TGI [9]: 54.8 µM | TGI [10]: 14 µM | TGI [11]: > 24.5 µM | TGI [12]: 29.1 µM | TGI [13]: 3.66 µM | TGI [14]: 10.7 µM | TGI [15]: 33.6 µM | TGI [16]: > 100 µM | TGI [17]: 15.5 µM | TGI [18]: 5.98 µM | TGI [19]: 24.2 µM | TGI [20]: 34.3 µM

C=C(CCC/C(C)=C/C=C/[C@H](C)CCCc1ccoc1)C[C@@H]1OC(=O)[C@H](C)[C@@H]1O
TGI [1]: 19.4 µM | TGI [2]: 16.9 µM | TGI [3]: 16.6 µM | TGI [4]: 27.4 µM | TGI [5]: 26.7 µM | TGI [6]: 17 µM | TGI [7]: 16.4 µM | TGI [8]: 13.1 µM | TGI [9]: 27.5 µM | TGI [10]: 29.5 µM | TGI [11]: 30.2 µM | TGI [12]: 18.2 µM | TGI [13]: 42.4 µM | TGI [14]: 33.9 µM | TGI [15]: 16.6 µM | TGI [16]: 28.6 µM | TGI [17]: 14.2 µM | TGI [18]: 24.6 µM | TGI [19]: 24.3 µM | TGI [20]: 17.8 µM

Cn1nc(-c2ccccc2)c2c(-c3ccccc3)c3cc(Cl)ccc3nc21
TGI [1]: > 100 µM | TGI [2]: > 100 µM | TGI [3]: > 100 µM | TGI [4]: > 22.9 µM | TGI [5]: > 100 µM | TGI [6]: > 100 µM | TGI [7]: > 100 µM | TGI [8]: > 100 µM | TGI [9]: > 100 µM | TGI [10]: > 100 µM | TGI [11]: > 100 µM | TGI [12]: > 100 µM | TGI [13]: > 100 µM | TGI [14]: > 100 µM | TGI [15]: > 100 µM | TGI [16]: > 100 µM | TGI [17]: > 100 µM | TGI [18]: > 100 µM | TGI [19]: > 100 µM | TGI [20]: > 100 µM

c1ccc(-c2cc(-c3ccncc3)cc(-c3ccncc3)n2)cc1
TGI [1]: > 100 µM | TGI [2]: > 100 µM | TGI [3]: > 100 µM | TGI [4]: > 100 µM | TGI [5]: > 100 µM | TGI [6]: > 100 µM | TGI [7]: > 100 µM | TGI [8]: > 100 µM | TGI [9]: > 100 µM | TGI [10]: > 100 µM | TGI [11]: > 100 µM | TGI [12]: > 100 µM | TGI [13]: > 100 µM | TGI [14]: > 100 µM | TGI [15]: > 100 µM | TGI [16]: > 100 µM | TGI [17]: > 100 µM | TGI [18]: > 100 µM | TGI [19]: > 100 µM | TGI [20]: > 100 µM

O=c1oc2ccc3ccccc3c2cc1-c1cn2c(n1)sc1ccccc12
TGI [1]: > 100 µM | TGI [2]: > 100 µM | TGI [3]: > 100 µM | TGI [4]: > 100 µM | TGI [5]: > 100 µM | TGI [6]: > 100 µM | TGI [7]: > 100 µM | TGI [8]: > 100 µM | TGI [9]: > 100 µM | TGI [10]: 14 µM | TGI [11]: > 100 µM | TGI [12]: > 100 µM | TGI [13]: > 100 µM | TGI [14]: > 100 µM | TGI [15]: > 100 µM | TGI [16]: > 100 µM | TGI [17]: > 100 µM | TGI [18]: > 100 µM | TGI [19]: > 100 µM | TGI [20]: > 100 µM

Cc1cc(C)c(S(=O)(=O)N(CCCN)OCCON(CCCN)S(=O)(=O)c2c(C)cc(C)cc2C)c(C)c1
TGI [1]: > 23.4 µM | TGI [2]: 66.2 µM | TGI [3]: 18.1 µM | TGI [4]: 70.5 µM | TGI [5]: > 100 µM | TGI [6]: > 100 µM | TGI [7]: 36.5 µM | TGI [8]: 10.3 µM | TGI [9]: 47.7 µM | TGI [10]: > 100 µM | TGI [11]: 6.33 µM | TGI [12]: 7.11 µM | TGI [13]: 5.1 µM | TGI [14]: > 100 µM | TGI [15]: 21.2 µM | TGI [16]: > 100 µM | TGI [17]: > 100 µM | TGI [18]: 4.67 µM | TGI [19]: > 100 µM | TGI [20]: 3.24 µM

Nc1nc(Br)nc2ncn(C3CC(O)C(CO)O3)c12 (stereo not given)
TGI [1]: > 100 µM | TGI [2]: > 100 µM | TGI [3]: > 100 µM | TGI [4]: > 100 µM | TGI [5]: > 100 µM | TGI [6]: > 100 µM | TGI [7]: > 100 µM | TGI [8]: > 100 µM | TGI [9]: > 100 µM | TGI [10]: 0.202 µM | TGI [11]: > 100 µM | TGI [12]: > 53 µM | TGI [13]: > 100 µM | TGI [14]: > 100 µM | TGI [15]: > 100 µM | TGI [16]: > 100 µM | TGI [17]: > 100 µM | TGI [18]: > 100 µM | TGI [19]: > 100 µM | TGI [20]: > 100 µM
